This experiment addresses T1, human M1 receptor (hCHRM1) (Homo sapiens, UniProt P11229).
T1 construct: expressed in transfected cells
T1 sequence (P11229 1-460): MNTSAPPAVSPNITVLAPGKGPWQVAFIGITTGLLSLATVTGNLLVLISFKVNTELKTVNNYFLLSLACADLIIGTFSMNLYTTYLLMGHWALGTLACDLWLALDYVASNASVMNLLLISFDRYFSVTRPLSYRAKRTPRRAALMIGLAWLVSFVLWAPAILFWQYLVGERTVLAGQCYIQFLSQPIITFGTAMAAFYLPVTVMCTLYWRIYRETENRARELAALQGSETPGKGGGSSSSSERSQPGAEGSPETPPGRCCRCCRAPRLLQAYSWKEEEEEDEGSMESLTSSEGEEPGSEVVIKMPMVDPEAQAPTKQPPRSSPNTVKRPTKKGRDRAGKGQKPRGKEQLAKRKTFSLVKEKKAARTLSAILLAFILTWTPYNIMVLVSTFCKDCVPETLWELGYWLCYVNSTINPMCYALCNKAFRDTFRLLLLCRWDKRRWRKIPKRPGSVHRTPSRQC
In words: Measurement of M1 receptor positive allosteric modulator (M1PAM) activity, calcium fluorescence (FLIPRtetra) with acetylcholine at EC20. The format is cell-based. The following applies: for activity (%) at 10 μM: 10 μM test compound, 100% = acetylcholine 1 μM, 0% = DMSO, acetylcholine at EC20; for EC50: inflection point of concentration-dependent curve, CHO-K1 cells expressing hCHRM1, acetylcholine at EC20 (final 0.6-0.8 nM), read-out: IP value. The gist of the method:
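CHO-K1 cells stably expressing hCHRM1, Fluo-4 AM loaded; compound added with acetylcholine at EC20 (final 0.6-0.8 nM), fluorescence read 1 min. Activity normalised to 1 μM acetylcholine (100%) and DMSO (0%); IP values taken as inflection point of the concentration-response curve.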

The structures appear in SMILES notation.

Consider `Cc1c(Cc2ccc(-c3ccn(C)n3)cc2)cc2c(c1C)CN([C@H]1CCC[C@@H]1O)C2=O` [Example 13, 2-((1S,2S)-2-hydroxycyclopentyl)-4,5-dimethyl-6-(4-(1-methyl-1H-pyrazol-3-yl)benzyl)isoindolin-1-one], for which the “activity (%) at 10 μM” value turned out to be 104% and the EC50 amounted to 7.9 nM.

With `Cc1c(Cc2ccc(-c3cn(C)nn3)cc2)cc2c(c1C)CN(C[C@@H]1CCCO1)C2=O` [Example 14, 4,5-dimethyl-6-(4-(1-methyl-1H-1,2,3-triazol-4-yl)benzyl)-2-((2S)-tetrahydrofuran-2-ylmethyl)isoindolin-1-one], the “activity (%) at 10 μM” value is 94% and the EC50 came out at 1.2 nM.

For `Cc1c(Cc2ccc(-n3cccn3)cc2)cc2c(c1C)CN(CC(C)(C)O)C2=O` [Example 15, 2-(2-hydroxy-2-methylpropyl)-4,5-dimethyl-6-(4-(1H-pyrazol-1-yl)benzyl)isoindolin-1-one], the “activity (%) at 10 μM” value came to 103% and the EC50 stood at 11 nM.

In the case of `Cc1c(Cc2ccc(-n3cccn3)cc2F)cc2c(c1C)CN([C@H]1CCC[C@@H]1O)C2=O` [Example 16, 6-(2-fluoro-4-(1H-pyrazol-1-yl)benzyl)-2-((1S,2S)-2-hydroxycyclopentyl)-4,5-dimethylisoindolin-1-one], the “activity (%) at 10 μM” value is 94% and the EC50 was determined as 12 nM.

Take `Cc1c(Cc2ccc(Cl)cc2)cc2c(c1C)CN([C@H]1COCC[C@@H]1O)C2=O` [Example 17, 1,5-anhydro-2-(6-(4-chlorobenzyl)-4,5-dimethyl-1-oxo-1,3-dihydro-2H-isoindol-2-yl)-2,4-dideoxy-L-threo-pentitol]: the “activity (%) at 10 μM” value came out at 90% and the EC50 was 18 nM.

`CNC(=O)c1ccc(Cc2cc3c(c(C)c2C)CN([C@H]2COCC[C@@H]2O)C3=O)cc1F` [Example 19, 1,5-anhydro-2,4-dideoxy-2-(6-(3-fluoro-4-(methylcarbamoyl)benzyl)-4,5-dimethyl-1-oxo-1,3-dihydro-2H-isoindol-2-yl)-L-threo-pentitol]: the “activity (%) at 10 μM” value is on record as 101% and the EC50 turned out to be 2 nM.

Regarding `Cc1cc2c(cc1Cc1ccc(-n3cccn3)cc1)C(=O)N([C@H]1COCC[C@@H]1O)C2` [Example 21, 1,5-anhydro-2,4-dideoxy-2-(5-methyl-1-oxo-6-(4-(1H-pyrazol-1-yl)benzyl)-1,3-dihydro-2H-isoindol-2-yl)-L-threo-pentitol], the “activity (%) at 10 μM” value is listed as 106% and the EC50 came to 6.2 nM.

On to `Cc1c(Cc2ccc(OC(F)F)cc2)cc2c(c1C)CN([C@H]1COCC[C@@H]1O)C2=O` [Example 22, 1,5-anhydro-2,4-dideoxy-2-(6-(4-(difluoromethoxy)benzyl)-4,5-dimethyl-1-oxo-1,3-dihydro-2H-isoindol-2-yl)-L-threo-pentitol], for which the “activity (%) at 10 μM” value is 110% and the EC50 amounted to 32 nM.

In the case of `COc1cc(Cc2cc3c(c(C)c2C)CN([C@H]2COCC[C@@H]2O)C3=O)ccc1F` [Example 23, 1,5-anhydro-2,4-dideoxy-2-(6-(4-fluoro-3-methoxybenzyl)-4,5-dimethyl-1-oxo-1,3-dihydro-2H-isoindol-2-yl)-L-threo-pentitol], the “activity (%) at 10 μM” value was found to be 100% and the EC50 worked out at 46 nM.

For the compound `COc1ccc(Cc2cc3c(c(Cl)c2C)CN([C@H]2COCC[C@@H]2O)C3=O)cc1` [Example 24, 1,5-anhydro-2-(4-chloro-6-(4-methoxybenzyl)-5-methyl-1-oxo-1,3-dihydro-2H-isoindol-2-yl)-2,4-dideoxy-L-threo-pentitol], the “activity (%) at 10 μM” value was 88% and the EC50 was found to be 4.3 nM.

As for `Cc1c(Cc2ccc(C#N)c(F)c2)cc2c(c1C)CN([C@H]1COCC[C@@H]1O)C2=O` [Example 26, 1,5-anhydro-2-(6-(4-cyano-3-fluorobenzyl)-4,5-dimethyl-1-oxo-1,3-dihydro-2H-isoindol-2-yl)-2,4-dideoxy-L-threo-pentitol], the “activity (%) at 10 μM” value is given as 99% and the EC50 was found to be 9.2 nM.

For the compound `Cc1cc2c(cc1Cc1ccc(-n3cccn3)cc1)C(=O)N(CC1CCCO1)C2` (stereo not drawn) [Example 36, 5-methyl-6-(4-(1H-pyrazol-1-yl)benzyl)-2-(tetrahydrofuran-2-ylmethyl)isoindolin-1-one], the “activity (%) at 10 μM” value is listed as 107% and the EC50 turned out to be 83 nM.

In the case of `Cc1cc2c(cc1Cc1ccc(-c3cn(C)nn3)cc1)C(=O)N(CC1CCCO1)C2` (stereo not drawn) [Example 49, 5-methyl-6-(4-(1-methyl-1H-1,2,3-triazol-4-yl)benzyl)-2-(tetrahydrofuran-2-ylmethyl)isoindolin-1-one], the “activity (%) at 10 μM” value turned out to be 97% and the EC50 was found to be 31 nM.

On to `Cc1cc2c(cc1Cc1ccc(-c3cn(C)nn3)cc1F)C(=O)N(CC1CCCO1)C2` (stereo not drawn) [Example 54, 6-(2-fluoro-4-(1-methyl-1H-1,2,3-triazol-4-yl)benzyl)-5-methyl-2-(tetrahydrofuran-2-ylmethyl)isoindolin-1-one], for which the “activity (%) at 10 μM” value was found to be 92% and the EC50 was 37 nM.

`CCc1cc2c(cc1Cc1ccc(-n3cccn3)cc1)C(=O)N(CC1CCCO1)C2` (stereo not drawn) [Example 58, 5-ethyl-6-(4-(1H-pyrazol-1-yl)benzyl)-2-(tetrahydrofuran-2-ylmethyl)isoindolin-1-one]: the “activity (%) at 10 μM” value is 100% and the EC50 amounted to 95 nM.

Turning to `Cn1cc(-c2ccc(Cc3cc4c(cc3Cl)CN(CC3CCCO3)C4=O)cc2)nn1` (stereo not drawn) [Example 60, 5-chloro-6-(4-(1-methyl-1H-1,2,3-triazol-4-yl)benzyl)-2-(tetrahydrofuran-2-ylmethyl)isoindolin-1-one], the “activity (%) at 10 μM” value came to 94% and the EC50 came to 72 nM.

On to `Cn1cc(-c2ccc(Cc3cc4c(cc3C3CC3)CN(CC3CCCO3)C4=O)cc2)nn1` (stereo not drawn) [Example 61, 5-cyclopropyl-6-(4-(1-methyl-1H-1,2,3-triazol-4-yl)benzyl)-2-(tetrahydrofuran-2-ylmethyl)isoindolin-1-one], for which the “activity (%) at 10 μM” value is recorded as 97% and the EC50 amounted to 35 nM.

With `O=C1c2cc(Cc3ccc(-n4cccn4)cc3)c(C3CC3)cc2CN1CC1CCCO1` (stereo not drawn) [Example 62, 5-cyclopropyl-6-(4-(1H-pyrazol-1-yl)benzyl)-2-(tetrahydrofuran-2-ylmethyl)isoindolin-1-one], the “activity (%) at 10 μM” value was 103% and the EC50 was determined as 95 nM.

As to `Cc1cc2c(cc1Cc1ccc(-c3cnn(C)c3)cc1)C(=O)N(CC1CCCO1)C2` (stereo not drawn) [Example 68, 5-methyl-6-(4-(1-methyl-1H-pyrazol-4-yl)benzyl)-2-(tetrahydrofuran-2-ylmethyl)isoindolin-1-one], the “activity (%) at 10 μM” value is 95% and the EC50 was 96 nM.

As for `Cc1c(Cc2ccc(-n3cccn3)cc2)cc2c(c1C)CN(CC1CCCO1)C2=O` (stereo not drawn) [Example 80, 4,5-dimethyl-6-(4-(1H-pyrazol-1-yl)benzyl)-2-(tetrahydrofuran-2-ylmethyl)isoindolin-1-one], the “activity (%) at 10 μM” value worked out at 90% and the EC50 was 14 nM.

Take `Cc1c(Cc2ccc(-c3cnn(C)c3)cc2)cc2c(c1C)CN(CC1CCCO1)C2=O` (stereo not drawn) [Example 84, 4,5-dimethyl-6-(4-(1-methyl-1H-pyrazol-4-yl)benzyl)-2-(tetrahydrofuran-2-ylmethyl)isoindolin-1-one]: the “activity (%) at 10 μM” value turned out to be 104% and the EC50 came out at 52 nM.

These data come from patent publication US9315458B2, “Nitrogen-containing heterocyclic compound” (Takeda Pharmaceutical Company Limited, priority 2014, dated 2016).
